Data: US20250352549A1, “SUBSTITUTED HETEROCYCLIC COMPOUND DERIVATIVES AND THEIR PHARMACEUTICAL USE” (AVELOS THERAPEUTICS INC., priority 0001, published 2025)
pIC50: −log10 of the molar value.

Columns and labels:
[1] = test system: T cells; conditions: disclosed in CN 116942819; cited from earlier work
[2] = test system: breast cancer MDA-MB-468 cells; conditions: disclosed in CN 116942819; cited from earlier work
[3] = test system: breast cancer MDA-MB-231 cells; conditions: disclosed in CN 116942819; cited from earlier work
[4] = target: Wild-type human active MASTL (Homo sapiens (Human), UniProt Q96GX5); experiment: MASTL activity assay; format: biochemical; conditions: ATP 18 μM, biotin tagged 40-mer ENSA peptide 10 nM, 60 minutes at room temperature, HTRF/FRET readout
Chain of Wild-type human active MASTL (Q96GX5 whole entry): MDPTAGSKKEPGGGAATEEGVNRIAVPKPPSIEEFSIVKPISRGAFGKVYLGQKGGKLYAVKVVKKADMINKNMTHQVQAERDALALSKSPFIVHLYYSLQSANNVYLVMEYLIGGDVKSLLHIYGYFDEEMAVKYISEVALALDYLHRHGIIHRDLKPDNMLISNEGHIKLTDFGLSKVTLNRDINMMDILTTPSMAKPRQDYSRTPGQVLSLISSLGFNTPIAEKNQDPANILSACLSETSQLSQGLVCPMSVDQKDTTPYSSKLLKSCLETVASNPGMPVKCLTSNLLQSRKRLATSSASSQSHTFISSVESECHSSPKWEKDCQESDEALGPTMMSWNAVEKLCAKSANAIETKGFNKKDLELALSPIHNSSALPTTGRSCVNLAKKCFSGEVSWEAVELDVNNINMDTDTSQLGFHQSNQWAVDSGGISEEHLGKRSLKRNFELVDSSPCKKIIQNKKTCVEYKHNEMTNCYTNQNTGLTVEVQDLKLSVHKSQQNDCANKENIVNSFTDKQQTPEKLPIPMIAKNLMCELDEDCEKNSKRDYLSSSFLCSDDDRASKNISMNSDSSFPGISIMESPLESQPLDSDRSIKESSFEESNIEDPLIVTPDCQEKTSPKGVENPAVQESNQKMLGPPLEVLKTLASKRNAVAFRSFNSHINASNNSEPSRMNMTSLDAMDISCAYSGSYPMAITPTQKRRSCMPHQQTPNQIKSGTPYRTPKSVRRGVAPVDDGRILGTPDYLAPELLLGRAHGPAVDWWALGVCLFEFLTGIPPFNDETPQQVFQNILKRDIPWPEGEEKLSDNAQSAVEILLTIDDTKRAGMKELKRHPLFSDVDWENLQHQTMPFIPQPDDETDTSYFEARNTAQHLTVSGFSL
Description: Wild-type human active MASTL (154 pM) was incubated in assay buffer (50 mM HEPES, 100 mM NaCl, 0.1 mM EGTA, 10 mM MgCl2, 0.01% Tween-20, 0.5 mM TCEP, pH 7.5) with biotin tagged 40-mer ENSA peptide (10 nM), test compound and ATP (18 μM) for 60 minutes at room temperature. Test compounds were assayed using a 12-point dose range consisting of a 0, DMSO control and 10 sequential doses consisting from 0.0005, 0.002, 0.005, 0.014, 0.04, 0.12, 0.37, 1.11, 3.33 and 10 μM. The DMSO concentration was the same (1%) in all samples. An equal volume of detection buffer (assay buffer+267.5 pM Ab-K, 1.25 nM SA-D2, 20 mM EDTA and 400 mM KF) was added to stop the reaction to make a final volume of 20 μl, RT for 60 mins. Activity was measured using a plate reader (PerkinElmer EnSight) by the FRET signal generated between SA-D2 (streptavidin-D2) and Ab-K (anti-phospho-Serine 67 ENSA antibody (rabbit polyclonal, using standard techniques by a commercial supplier) conjugated to Cryptate). HTRF reagents (CisBio) were prepared as per the manufacturer recommendations. The 40-mer biotin-tagged ENSA peptide (synthesised by Bionics) used was based around Serine 67 on ENSA ([…]).

| SMILES | anti-tumor function of T cells [1] | effect on the up-regulation of the interferon-induced PD-L1 expression [2] | effect on PD-L1 expression of tumor cells which expressed PD-L1 in a high level and were not affected by interferon [3] | pIC50 [4] |
| --- | --- | --- | --- | --- |
| O=C(Nc1nc2ccccc2[nH]1)c1cccc(-n2cccc2)c1 [MKI-1] | effectively enhance the anti-tumor function of T cells | remarkable inhibition effect | not possible to effect | – |
| Cc1nc([C@H](Nc2nc(N)nc(-c3ccc4cnc(C)n4c3)n2)C(C)C)c[nH]1 (single isomer, unassigned) [Example 155A, 6-(3-methylimidazo[1,5-a]pyridin-6-yl)-N4-[(1S or 1R)-2-methyl-1-(2-methyl-1H-imidazol-4-yl)propyl]-1,3,5-triazine-2,4-diamine] | – | – | – | 6.00 to 6.30 |
| CC(C)C(Nc1nc(N)nc(-c2ccc3c(cnn3C)c2)n1)c1ccn(C(F)F)n1 (single isomer, unassigned) [Example 47A, (R or S)—N2-(1-(1-(difluoromethyl)-1H-pyrazol-3-yl)-2-methylpropyl)-6-(1-methyl-1H-indazol-5-yl)-1,3,5-triazine-2,4-diamine] | – | – | – | 6.30 to 9.00 |
